Data published in patent publication US5543429A, “Antifungal agents” (Merck & Co., Inc., priority 1995, dated 1996).
Converted amounts (≈) assume the structure as drawn.

Key:
Candida albicans MY1055 = test: broth microdilution assay (MIC/MFC); conditions: for MIC: MY1055, 24 h, read-out: Minimum Inhibitory Concentration (MIC); for MFC: MY1055, read-out: Minimum Fungicidal Concentration (MFC)
Candida glabrata MY1381 = test: broth microdilution assay (MIC/MFC); conditions: Nakaseomyces glabratus; for MIC: MY1381, 24 h, read-out: Minimum Inhibitory Concentration (MIC); for MFC: MY1381, read-out: Minimum Fungicidal Concentration (MFC)
[1] = tested on: Candida parapsilosis MY1010; test: broth microdilution assay (MIC/MFC); conditions: Lodderomyces parapsilosis; for MIC: MY1010, 24 h, read-out: Minimum Inhibitory Concentration (MIC); for MFC: MY1010, read-out: Minimum Fungicidal Concentration (MFC)
[2] = tested on: Candida pseudotropicalis MY2099; test: broth microdilution assay (MIC/MFC); conditions: Kluyveromyces marxianus; for MIC: MY2099, 24 h, read-out: Minimum Inhibitory Concentration (MIC); for MFC: MY2099, read-out: Minimum Fungicidal Concentration (MFC)
[3] = tested on: Candida tropicalis MY1124; test: broth microdilution assay (MIC/MFC); conditions: for MIC: MY1124, 24 h, read-out: Minimum Inhibitory Concentration (MIC); for MFC: MY1124, read-out: Minimum Fungicidal Concentration (MFC)
Candida albicans CLY539 = test: broth microdilution assay (MIC/MFC); conditions: for MIC: CLY539, 24 h, read-out: Minimum Inhibitory Concentration (MIC); for MFC: CLY539, read-out: Minimum Fungicidal Concentration (MFC)
Candida albicans CA2 = test: broth microdilution assay (MIC/MFC); conditions: for MIC: CA2, 24 h, read-out: Minimum Inhibitory Concentration (MIC); for MFC: CA2, read-out: Minimum Fungicidal Concentration (MFC)
[4] = tested on: Candida tropicalis MY1012; test: broth microdilution assay (MIC/MFC); conditions: for MIC: MY1012, 24 h, read-out: Minimum Inhibitory Concentration (MIC); for MFC: MY1012, read-out: Minimum Fungicidal Concentration (MFC)
[5] = tested on: Candida guillermondii MY1019; test: broth microdilution assay (MIC/MFC); conditions: for MIC: MY1019, 24 h, read-out: Minimum Inhibitory Concentration (MIC); for MFC: MY1019, read-out: Minimum Fungicidal Concentration (MFC)
[6] = tested on: Cryptococcus neoformans MY2062; test: broth microdilution assay (MIC/MFC); conditions: MY2062, 48 h; for MIC: read-out: Minimum Inhibitory Concentration (MIC); for MFC: read-out: Minimum Fungicidal Concentration (MFC)
[7] = tested on: Saccharomyces cerevisiae MY2140; test: broth microdilution assay (MIC/MFC); conditions: for MIC: MY2140, 24 h, read-out: Minimum Inhibitory Concentration (MIC); for MFC: MY2140, read-out: Minimum Fungicidal Concentration (MFC)
[8] = tested on: Saccharomyces cerevisiae MY2141; test: broth microdilution assay (MIC/MFC); conditions: for MIC: MY2141, 24 h, read-out: Minimum Inhibitory Concentration (MIC); for MFC: MY2141, read-out: Minimum Fungicidal Concentration (MFC)
[9] = tested on: Aspergillus fumigatus MY4839; test: broth microdilution assay (MIC/MFC); conditions: MY4839, 24 h, read-out: Minimum Inhibitory Concentration (MIC)
[10] = tested on: Aspergillus fumigatus MY5668; test: broth microdilution assay (MIC/MFC); conditions: MY5668, 24 h, read-out: Minimum Inhibitory Concentration (MIC)
Plasmopara viticola = test: in vivo protectant assay, downy mildew on grape; conditions: P. viticola
Botrytis cinerea = test: in vivo protectant assay, grey mold on pepper; conditions: B. cinerea
Phytophthora infestans = format: in vivo; conditions: P. infestans, miniature plant assay
Alternaria solani = test: in vivo protectant assay, early blight on tomato; conditions: A. solani, miniature plant assay
Septoria nodorum = test: in vivo protectant assay, glume blotch on wheat; conditions: S. nodorum, scaled up, high spray volume assay, 100 ppm
Puccinia recondita = test: in vivo protectant assay, wheat leaf rust on wheat; conditions: P. recondita, scaled up, high spray volume assay, 100 ppm
panel of seven pathogens = test: in vivo protectant assay, panel of seven phytopathogens
[11] = tested on: Aspergillus flavus, Fusarium oxysporum, Ustilago zeae and the like; test: agar plate inhibition zone test with filamentous fungi; format: cell-based; conditions: agar plates, 28°C or 37°C, 24 hours
[12] = tested on: Cryptococcus neoformans MY2061; test: broth microdilution assay (MIC/MFC); conditions: MY2061, 48 h; for MFC: read-out: Minimum Fungicidal Concentration (MFC); for MIC: read-out: Minimum Inhibitory Concentration (MIC)
[13] = scaled up, high spray volume assay, 100 ppm

Structure (SMILES) | MIC (Candida albicans MY1055) [µg/mL] | MFC (Candida albicans MY1055) [µg/mL] | MIC (Candida glabrata MY1381) [µg/mL] | MFC (Candida glabrata MY1381) [µg/mL] | MIC [1] [µg/mL] | MFC [1] [µg/mL] | MIC [2] [µg/mL] | MFC [2] [µg/mL] | MIC [3] [µg/mL] | MFC [3] [µg/mL] | MIC (Candida albicans CLY539) [µg/mL] | MFC (Candida albicans CLY539) [µg/mL] | MIC (Candida albicans CA2) [µg/mL] | MFC (Candida albicans CA2) [µg/mL] | MIC [4] [µg/mL] | MFC [4] [µg/mL] | MIC [5] [µg/mL] | MFC [5] [µg/mL] | MIC [6] [µg/mL] | MIC [7] [µg/mL] | further results
C[C@@H]1[C@H](O)[C@@H](C)/C=C/C=C/C=C/C=C/C=C/C=C/C=C/[C@H](O[C@@H]2O[C@H](C)[C@@H](O)[C@H](N)[C@@H]2O)C[C@@H]2O[C@](O)(C[C@@H](O)C[C@@H](O)[C@H](O)CC[C@@H](O)C[C@@H](O)CC(=O)O[C@H]1C)C[C@H](O)[C@H]2C(=O)O [Amphotericin B, amphotericin B, reference compound] | 1 (≈ 1.08 µM) | 1 (≈ 1.08 µM) | 2 (≈ 2.16 µM) | 2 (≈ 2.16 µM) | 1 (≈ 1.08 µM) | 1 (≈ 1.08 µM) | 2 (≈ 2.16 µM) | 2 (≈ 2.16 µM) | 2 (≈ 2.16 µM) | 2 (≈ 2.16 µM) | 1 (≈ 1.08 µM) | 2 (≈ 2.16 µM) | 1 (≈ 1.08 µM) | 1 (≈ 1.08 µM) | 16 (≈ 17.3 µM) | 16 (≈ 17.3 µM) | 1 (≈ 1.08 µM) | 2 (≈ 2.16 µM) | 1 (≈ 1.08 µM) | 1 (≈ 1.08 µM) | MFC [7]: 1 µg/mL (≈ 1.08 µM); MIC [8]: 1 µg/mL (≈ 1.08 µM); MFC [8]: 1 µg/mL (≈ 1.08 µM); MIC [9]: 2 µg/mL (≈ 2.16 µM); MIC [10]: 2 µg/mL (≈ 2.16 µM)
C=CC1=CCC2C(CC3OC(=O)C4(C)C(O)CCC2(C)C34O)C1C (stereo not drawn) [Compound II] | 2 (≈ 6.02 µM) | 4 (≈ 12 µM) | 4 (≈ 12 µM) | 4 (≈ 12 µM) | 8 (≈ 24.1 µM) | 8 (≈ 24.1 µM) | 1 (≈ 3.01 µM) | 2 (≈ 6.02 µM) | 4 (≈ 12 µM) | 8 (≈ 24.1 µM) | 2 (≈ 6.02 µM) | 2 (≈ 6.02 µM) | 32 (≈ 96.3 µM) | 4 (≈ 12 µM) | 2 (≈ 6.02 µM) | 2 (≈ 6.02 µM) | 8 (≈ 24.1 µM) | 16 (≈ 48.1 µM) | 1 (≈ 3.01 µM) | 1 (≈ 3.01 µM) | percent control of disease (Plasmopara viticola; miniature plant assay): 80-95%; percent control of disease (Plasmopara viticola; protectant assay, 11 ppm): 50-85%; percent control of disease (Plasmopara viticola; [13]): 100%; percent control of disease (Botrytis cinerea; miniature plant assay): 80-95%; percent control of disease (Botrytis cinerea; protectant assay, 11 ppm): 50-85%; percent control of disease (Botrytis cinerea; [13]): 100%; percent control of disease (Phytophthora infestans): 80-95%; percent control of disease (Alternaria solani): 80-95%; percent control of disease (Septoria nodorum): 60%; percent control of disease (Puccinia recondita): 100%; control of phytopathogens (panel of seven pathogens): very efficacious at controlling six of the phytopathogens; inhibition of growth of filamentous fungi [11]: effectively inhibit growth of the fungal organisms; MFC [12]: 1 µg/mL (≈ 3.01 µM); MIC [12]: 2 µg/mL (≈ 6.02 µM); MFC [6]: 1 µg/mL (≈ 3.01 µM); MFC [7]: 2 µg/mL (≈ 6.02 µM); MIC [8]: 0.5 µg/mL (≈ 1.5 µM); MFC [8]: 1 µg/mL (≈ 3.01 µM); MIC [9]: 2 µg/mL (≈ 6.02 µM); MIC [10]: 1 µg/mL (≈ 3.01 µM)
C=CC1C(=C)CCC2C1CC1OC(=O)C3(C)C(O)CCC2(C)C13O (stereo not drawn) [Compound I] | 2 (≈ 6.02 µM) | 4 (≈ 12 µM) | 8 (≈ 24.1 µM) | 8 (≈ 24.1 µM) | 8 (≈ 24.1 µM) | 32 (≈ 96.3 µM) | 4 (≈ 12 µM) | 4 (≈ 12 µM) | 8 (≈ 24.1 µM) | 16 (≈ 48.1 µM) | 4 (≈ 12 µM) | 2 (≈ 6.02 µM) | 8 (≈ 24.1 µM) | 8 (≈ 24.1 µM) | 2 (≈ 6.02 µM) | 2 (≈ 6.02 µM) | 8 (≈ 24.1 µM) | 16 (≈ 48.1 µM) | 0.25 (≈ 0.752 µM) | 2 (≈ 6.02 µM) | percent control of disease (Plasmopara viticola; 200 ppm): up to 80%; percent control of disease (Botrytis cinerea; 200 ppm): up to 80%; inhibition of growth of filamentous fungi [11]: effectively inhibit growth of the fungal organisms; MFC [12]: 0.25 µg/mL (≈ 0.752 µM); MIC [12]: 0.5 µg/mL (≈ 1.5 µM); MFC [6]: 0.25 µg/mL (≈ 0.752 µM); MFC [7]: 8 µg/mL (≈ 24.1 µM); MIC [8]: 1 µg/mL (≈ 3.01 µM); MFC [8]: 8 µg/mL (≈ 24.1 µM); MIC [9]: 4 µg/mL (≈ 12 µM); MIC [10]: 8 µg/mL (≈ 24.1 µM)
